This passage reports MIC results from patent US4065619A, “7-(α-Sulfoacylamido)cephalosporins” (Takeda Chemical Industries, Ltd., priority 1971, dated 1977).

In brackets after ≈: the same amount, converted by molar mass.

Holding throughout (type): cell-based
For assay [1], the system named is Pseudomonas aeruginosa (Pd 12). Put plainly: Minimum inhibitory concentration, Pseudomonas aeruginosa (Pd 12).
Assay [2] has as its system Pseudomonas aeruginosa (Pd 1). Put plainly: Minimum inhibitory concentration, Pseudomonas aeruginosa (Pd 1).
The test system of assay [3] is Pseudomonas aeruginosa (NCTC 10490). Put plainly: Minimum inhibitory concentration, Pseudomonas aeruginosa (NCTC 10490). The note with it: NCTC10490.
The test system of assay [4] is Staphylococcus aureus (209P). Put plainly: Minimum inhibitory concentration, Staphylococcus aureus 209P.
In the next assay the test system is Pseudomonas aeruginosa. Put plainly: Minimum inhibitory concentration, Pseudomonas aeruginosa (strain not given).
Assay [5] has as its system Pseudomonas aeruginosa (T-3). Put plainly: Minimum inhibitory concentration, Pseudomonas aeruginosa (T-3).
For assay [6], the system named is Pseudomonas aeruginosa (Pd 13). Put plainly: Minimum inhibitory concentration, Pseudomonas aeruginosa (Pd 13).
In assay [7] the test system is Staphylococcus aureus (penicillin G resistant). Put plainly: Minimum inhibitory concentration, Staphylococcus aureus (penicillin G resistant).
Assay [8] concerns Staphylococcus aureus (No. 87, penicillin G resistant). Put plainly: Minimum inhibitory concentration, Staphylococcus aureus (No. 87, penicillin G resistant).
Assay [9] concerns Pseudomonas aeruginosa (10490). Put plainly: Minimum inhibitory concentration, Pseudomonas aeruginosa (10490).
Assay [10] has as its system Pseudomonas aeruginosa (NCTC). Put plainly: Minimum inhibitory concentration, Pseudomonas aeruginosa (NCTC).

By MIC is commonly meant the lowest concentration that inhibits growth of the organism. Lower therefore signals inhibition by little substance. Take `O=C([O-])C1=C(C[n+]2cccc3ccccc32)CS[C@@H]2[C@H](NC(=O)C(c3ccccc3)S(=O)(=O)O)C(=O)N12` (some centres unmarked): in [1], it took 5 µg/mL (≈ 9.27 µM) to inhibit growth (MIC).

Turning to `O=C([O-])C1=C(C[n+]2ccccc2)CS[C@@H]2[C@H](NC(=O)C(c3ccsc3)S(=O)(=O)O)C(=O)N12` (some centres unmarked) [Example 13], the MIC in [2] was determined as 2 µg/mL (≈ 4.04 µM); in [3] it was 1 µg/mL (≈ 2.02 µM).

As to `NNC(=O)c1cc[n+](CC2=C(C(=O)[O-])N3C(=O)[C@@H](NC(=O)C(c4ccccc4)S(=O)(=O)O)[C@H]3SC2)cc1` (some centres unmarked), in assay [1], 10 µg/mL (≈ 18.3 µM) was the least that counted as inhibitory (MIC).

Compound `NC(=O)c1cc[n+](CC2=C(C(=O)[O-])N3C(=O)[C@@H](NC(=O)C(c4ccccc4)S(=O)(=O)O)[C@H]3SC2)cc1` (some centres unmarked) [drawing 13] displayed an MIC in [1] of 0.5 µg/mL (≈ 0.939 µM).

With `Cc1cccc[n+]1CC1=C(C(=O)[O-])N2C(=O)[C@@H](NC(=O)C(c3ccccc3)S(=O)(=O)O)[C@H]2SC1` (stereo partly drawn) [Example 5, sodium N-[7-(α-sulfophenylacetamido)-ceph-3-em-3-ylmethyl]-2'-methylpyridinium-4-carboxylate], the MIC in assay [2] stood at 3 µg/mL; in assay [3], 2 µg/mL.

Compound `O=C([O-])C1=C(C[n+]2cccc(C(=O)O)c2)CS[C@@H]2[C@H](NC(=O)C(c3ccccc3)S(=O)(=O)O)C(=O)N12` (some centres unmarked) had an MIC in assay [1] of 5 µg/mL (≈ 9.37 µM).

As to `Nc1ccc(C(C(=O)NC2C(=O)N3C(C(=O)[O-])=C(C[n+]4ccccc4)CSC23)S(=O)(=O)O)cc1` (stereo not drawn) [Example 9, sodium 7-[α-sulfo-α-(p-aminophenyl)acctamido]-3-(pyridiniummethyl)ceph-3-em-4-carboxylate], the MIC (in assay [4]; against Pseudomonas aeruginosa) was 5 µg/mL in each case.

Consider `O=C([O-])C1=C(C[n+]2ccccc2)CS[C@@H]2[C@H](NC(=O)C(c3ccccc3)S(=O)(=O)O)C(=O)N12` (some centres unmarked) [Example 1], for which the MIC in [2] was found to be 2 µg/mL (≈ 4.09 µM); in assay [1], 10 µg/mL (≈ 20.4 µM); in assay [5], 5 µg/mL (≈ 10.2 µM); in assay [3], 1 µg/mL (≈ 2.04 µM); in assay [6] it was 5 µg/mL (≈ 10.2 µM); in assay [4], 1 µg/mL (≈ 2.04 µM). The same compound gave an MIC in assay [7] of 2 µg/mL (≈ 4.09 µM).

Compound `O=C([O-])C1=C(C[n+]2ccc3ccccc3c2)CS[C@@H]2[C@H](NC(=O)C(c3ccccc3)S(=O)(=O)O)C(=O)N12` (some centres unmarked) showed an MIC in [1] of 5 µg/mL (≈ 9.27 µM).

`CCCCC(C(=O)NC1C(=O)N2C(C(=O)[O-])=C(C[n+]3ccccc3)CSC12)S(=O)(=O)O` (centres unmarked) [Example 7]: the MIC in assay [8] and in assay [9] was 2 µg/mL (≈ 4.26 µM) throughout.

`NC(=O)c1ccc[n+](CC2=C(C(=O)[O-])N3C(=O)[C@@H](NC(=O)C(c4ccccc4)S(=O)(=O)O)[C@H]3SC2)c1` (some centres unmarked) came in with an MIC in assay [1] of 1 µg/mL (≈ 1.88 µM).

For `NC(=O)c1cc[n+](CC2=C(C(=O)[O-])N3C(=O)[C@@H](NC(=O)C(c4ccccc4)S(=O)(=O)O)[C@H]3SC2)cc1` (stereo partly drawn) [Example 3, sodium N-[7-(α-sulfophenylacetamido)ceph-3-em-3-ylmethyl]-4'-carbamoyl-pyridinium-4-carboxylate], the MIC turned out to be 1 µg/mL in assay [2] and 0.5 µg/mL in assay [10].
